In brackets after ≈: the same amount, converted by molar mass. Entries after “also recorded” stand apart in the source; their conditions may differ. Like-named read-outs stand apart in the source and are kept apart here.
Columns and labels:
[1] = tested on: Immortalized human keratinocyte cells (HaCaTs); assay: Lactate dehydrogenase (LDH) cytotoxicity assay; format: cell-based; details: HaCaT IC50 over median IC50 for growth inhibition of A. baumannii
From the text: (§1) Immortalized human keratinocyte cells (HaCaTs) were used in a lactate dehydrogenase (LDH) assay to assess cytotoxicity by PGG and its parents.

[2] = Lactate dehydrogenase (LDH) cytotoxicity assay; format: cell-based, human; details: human; HaCaT, LDH assay
From the text: as §1

A. baumannii AB5075 [3] = assay: Biofilm formation inhibition and biofilm eradication; format: cell-based, Acinetobacter baumannii
From the text: However, there was no significant difference between PGG and control with regards to biofilm promotion or inhibition at any concentration tested and no dose-response trend was noted.

ESKAPE pathogens = assay: Growth inhibition of a panel of ESKAPE pathogens (overall); format: cell-based
Description: (§2) PGG was also tested against a panel of other ESKAPE pathogens: Enterococcus faecium, Staphylococcus aureus, Klebsiella pneumoniae, Pseudomonas aeruginosa, and Enterobacter cloacae.

Staphylococcus aureus = assay: Growth inhibition of ESKAPE pathogens; format: cell-based; details: strain LAC
Description: as §2

Klebsiella pneumoniae = assay: Growth inhibition of ESKAPE pathogens; format: cell-based
Description: as §2

Pseudomonas aeruginosa = assay: Growth inhibition of ESKAPE pathogens; format: cell-based
Description: as §2

Enterobacter cloacae = assay: Growth inhibition of ESKAPE pathogens; format: cell-based
Description: as §2

Enterococcus faecium = assay: Growth inhibition of ESKAPE pathogens; format: cell-based
Description: as §2

A. baumannii AB5075 [4] = assay: Resistance studies (agar plates and 21-day serial passaging); format: cell-based, Acinetobacter baumannii
Description: To test for spontaneous development of resistance to PGG, A. baumannii AB5075 was inoculated on agar plates containing PGG at 0.5×MIC, 1×MIC, and 2×MIC (128, 256, and 512 μg/mL, respectively), and a control plate containing no PGG. […] Next, evolution of resistance was tested by serial passaging A. baumannii AB5075 for 21 days in the presence of a PGG gradient, using culture from the 0.5×MIC treatment for each subsequent passage. Serial passaging with a tetracycline gradient served as a control.

A. baumannii AB5075 [5] = assay: Restoration assay (iron addition to PGG-treated wells); format: cell-based, Acinetobacter baumannii; details: AB5075, 1 mM iron (II) or iron (III) sulfate on PGG-treated wells, 24-48 h
Description: To test for the restoration of bacterial growth after iron addition, iron (II) and iron (III) sulfate were spread at concentrations of 1 mM on PGG-treated A. baumannii AB5075 wells that had no visible colonies after 24 h of incubation. Immediately after addition of iron to the agar, all wells containing PGG obtained a purple color, increasing in darkness with increasing PGG concentration.

A. baumannii = assay: Time-kill assays with and without supplements; format: cell-based, Acinetobacter baumannii
Description: PGG antibacterial activity may be attributed to its chelation of iron. One can use a colorimetric assay to quantify binding of free iron by PGG. One can perform bioassays with iron supplementation and 2,2′-dipyridyl, a known iron chelator, as a control. To elucidate potential mechanisms of action of PGG, A. baumannii growth inhibition and time-kill assays were carried out with various supplements in combination with PGG: 0.02% oleic acid, 0.02% polysorbate 80, 1 mM iron (II) sulfate, and 1 mM iron (III) sulfate. […] Furthermore, PGG combined with oleic acid, polysorbate 80, and iron (II) sulfate treatments had roughly tenfold, 100-fold, and 1,000-fold higher CFU/mL measurements, respectively, than PGG alone at the 24 h timepoint.

O=C(OC[C@H]1O[C@@H](OC(=O)c2cc(O)c(O)c(O)c2)[C@H](OC(=O)c2cc(O)c(O)c(O)c2)[C@@H](OC(=O)c2cc(O)c(O)c(O)c2)[C@@H]1OC(=O)c1cc(O)c(O)c(O)c1)c1cc(O)c(O)c(O)c1 [PGG, [(2R,3R,4S,5R,6S)-3,4,5,6-tetrakis[(3,4,5-trihydroxybenzoyl)oxy]oxan-2-yl]methyl 3,4,5-trihydroxybenzoate]
therapeutic index [1]: 32
IC50 [2]: 256 µg/mL (≈ 272 µM)
biofilm formation inhibition (A. baumannii AB5075 [3]; AB5075, 0.5-64 μg/mL (sub-MIC)): did not exhibit any antibiofilm activity
biofilm eradication (A. baumannii AB5075 [3]; AB5075, 2-256 μg/mL): did not exhibit any antibiofilm activity
biofilm formation relative to vehicle (DMSO) control (A. baumannii AB5075 [3]; AB5075, 8-64 μg/mL, not significant): mild promotion of biofilm formation
concentrations with activity against a wide range of pathogenic bacteria (ESKAPE pathogens): ≥ 64 µg/mL
IC50 (Staphylococcus aureus; read-out: PGG IC50): 16 µg/mL (≈ 17 µM)
MIC (Staphylococcus aureus; read-out: PGG MIC): 64 µg/mL (≈ 68 µM)
MIC (Klebsiella pneumoniae; read-out: PGG MIC): 256 µg/mL (≈ 272 µM)
IC50 (Klebsiella pneumoniae; strain NR-15410, read-out: PGG IC50): 8 µg/mL (≈ 8.5 µM)
MIC (Pseudomonas aeruginosa; P. aeruginosa, strain not given, read-out: MIC): 16 µg/mL (≈ 17 µM)
IC50 (Pseudomonas aeruginosa; strain AR Bank #0054, read-out: PGG IC50): 8 µg/mL (≈ 8.5 µM)
MIC (Pseudomonas aeruginosa; strain AR Bank #0054, read-out: PGG MIC): > 64 µg/mL
IC50 (Pseudomonas aeruginosa; strain AR Bank #0064, read-out: PGG IC50): 4 µg/mL (≈ 4.25 µM)
MIC (Pseudomonas aeruginosa; strain AR Bank #0064, read-out: PGG MIC): 16 µg/mL (≈ 17 µM)
IC50 (Pseudomonas aeruginosa; strain AR Bank #0090, read-out: PGG IC50): 4 µg/mL (≈ 4.25 µM)
MIC (Pseudomonas aeruginosa; strain AR Bank #0090, read-out: PGG MIC): > 64 µg/mL
IC50 (Pseudomonas aeruginosa; strain AR Bank #0092, read-out: PGG IC50): 4 µg/mL (≈ 4.25 µM)
MIC (Pseudomonas aeruginosa; strain AR Bank #0092, read-out: PGG MIC): > 64 µg/mL
IC50 (Pseudomonas aeruginosa; strain AR Bank #0094, read-out: PGG IC50): 8 µg/mL (≈ 8.5 µM)
MIC (Pseudomonas aeruginosa; strain AR Bank #0094, read-out: PGG MIC): 64 µg/mL (≈ 68 µM)
IC50 (Pseudomonas aeruginosa; strain AR Bank #0095, read-out: PGG IC50): 8 µg/mL (≈ 8.5 µM)
MIC (Pseudomonas aeruginosa; strain AR Bank #0095, read-out: PGG MIC): 64 µg/mL (≈ 68 µM)
IC50 (Pseudomonas aeruginosa; strain AR Bank #0100, read-out: PGG IC50): 8 µg/mL (≈ 8.5 µM)
MIC (Pseudomonas aeruginosa; strain AR Bank #0100, read-out: PGG MIC): > 64 µg/mL
IC50 (Pseudomonas aeruginosa; strain AR Bank #0103, read-out: PGG IC50): 4 µg/mL (≈ 4.25 µM)
MIC (Pseudomonas aeruginosa; strain AR Bank #0103, read-out: PGG MIC): 64 µg/mL (≈ 68 µM)
IC50 (Pseudomonas aeruginosa; strain AR Bank #0105, read-out: PGG IC50): 32 µg/mL (≈ 34 µM)
MIC (Pseudomonas aeruginosa; strain AR Bank #0105, read-out: PGG MIC): > 64 µg/mL
IC50 (Pseudomonas aeruginosa; strain AR Bank #0108, read-out: PGG IC50): 8 µg/mL (≈ 8.5 µM)
MIC (Pseudomonas aeruginosa; strain AR Bank #0108, read-out: PGG MIC): > 64 µg/mL
IC50 (Pseudomonas aeruginosa; strain AR Bank #0110, read-out: PGG IC50): 4 µg/mL (≈ 4.25 µM)
MIC (Pseudomonas aeruginosa; strain AR Bank #0110, read-out: PGG MIC): 64 µg/mL (≈ 68 µM)
IC50 (Pseudomonas aeruginosa; strain AR Bank #0111, read-out: PGG IC50): 4 µg/mL (≈ 4.25 µM)
MIC (Pseudomonas aeruginosa; strain AR Bank #0111, read-out: PGG MIC): 64 µg/mL (≈ 68 µM)
IC50 (Pseudomonas aeruginosa; strain PA01, read-out: PGG IC50): 8 µg/mL (≈ 8.5 µM)
MIC (Pseudomonas aeruginosa; strain PA01, read-out: PGG MIC): 16 µg/mL (≈ 17 µM)
MIC (Enterobacter cloacae; read-out: PGG MIC): > 256 µg/mL
IC50 (Enterobacter cloacae; strain AR Bank #0032, read-out: PGG IC50): 64 µg/mL (≈ 68 µM)
IC50 (Enterococcus faecium; strain NR-31915, read-out: PGG IC50): 128 µg/mL (≈ 136 µM)
MIC (Enterococcus faecium; strain NR-31915, read-out: PGG MIC): > 256 µg/mL
evolution of resistance on serial passaging (A. baumannii AB5075 [4]; A. baumannii AB5075, 21 daily passages from the 0.5×MIC treatment): did not produce any resistant mutants; also recorded: remained stable; also recorded: did not stimulate any spontaneous resistance
spontaneous development of resistance (colonies on agar plates) (A. baumannii AB5075 [4]; A. baumannii AB5075, agar with 128, 256 and 512 μg/mL, 24 h): no colonies appeared
MIC (A. baumannii AB5075 [4]; Acinetobacter baumannii, AB5075, read-out: Base MIC): 256 µg/mL (≈ 272 µM)
restoration of bacterial growth after iron addition (A. baumannii AB5075 [5]): can be attenuated by addition of iron
kind of activity in time-kill (CFU/mL curve) (A. baumannii; PGG alone, 256 μg/mL): bacteriostatic rather than bactericidal
CFU/mL relative to PGG alone (A. baumannii; PGG combined with iron (II) sulfate, 24 h timepoint): ~1,000 fold
CFU/mL relative to PGG alone (A. baumannii; PGG combined with oleic acid, 24 h timepoint): roughly tenfold
CFU/mL relative to PGG alone (A. baumannii; PGG combined with polysorbate 80, 24 h timepoint): ~100 fold
